Results on seven compounds are retold here after publication PMC11587516 (ACS Chemical Neuroscience, 2024).

The subject of data set [1] is SH-SY5Y neuroblastoma cells. In words: SH-SY5Y viability, MTS assay, 72 h. The following applies: 1 µM, reference cytostatic drug. Type of data set: cell-based, human. From the text:
OC(=O)[C@H]1CNCC[C@@H]1S OC(=O)CCCCCCN1C=CN=C1
OC(=O)C1CCNCC1 N[C@]12C[C@H]1[C@@H](CC2)C(O)=O
OC(=O)C1=CCNCC1 N[C@H]1C[C@@H]1CC(O)=O
O[C@@H]1CNCC[C@H]1C(O)=O N[C@@H]1C[C@@H]1CC(O)=O
OC(=O)CCCC1=NC=CN1 N[C@H]1C[C@H]1CC(O)=O
OC(=O)\C=C\C1=NC=CN1 NC[C@H]1C[C@H]1C(O)=O
OC(=O)\C=C\C1=CNC=N1 NC[C@@H]1C[C@@H]1C(O)=O
OC(=O)\C=C\C1=CN=CN1 NC[C@@H]1C[C@H]1C(O)=O
OC(=O)CCC1=CNC=N1 NC[C@H]1C[C@@H]1C(O)=O
OC(=O)CCC1=CN=CN1 NC1=CC=C(C=N1)C(O)=O
OC(=O)CCN1C=CN=C1 NC1=NC=C(C=N1)C(O)=O
OC(=O)CCCC1=NC=CN1 NC(=N)N1CCC(CC1)C(O)=O
S2. IC50 determination at GAT3 stable GAT3-CHO, compound 9
Figure S1. IC 50 determination for compound 9. Data represent one of three independent experiments, each performed in three technical replicates.
S3. […]
The influence of compound 9 on viability of SH-SY5Y neuroblastoma cells was determined using Aqueous Non-Radioactive Cell Proliferation Assay. […] Upon adding MTS and following 2h incubation, cell viability was calculated and […]
The effect of compound 9 on viability and proliferation of SH-SY5Y was determined with CellTiter 96® Aqueous Non-Radioactive Cell Proliferation Assay (MTS, Promega, Madison, WI, USA). […] Next MTS was added in fresh medium and after 2h of incubation the absorbance was measured at 490 nm using a microplate reader EnSpire (PerkinElmer, Waltham, MA USA). All results were shown as mean ± SD calculated from two independent experiments. […]
For orientation: Formazan colour is commonly taken as a measure of viable cells.

In data set [2] the test system is SH-SY5Y neuroblastoma cells. Particulars: 24 h. On the procedure: The model used mimics certain aspects of neurodegenerative diseases, where GABAergic dysfunction and neuronal death are prominent features. […] The neuroprotection studies were performed to determine the ability of compound 9 to prevent MPP^+ (1-methyl-4-phenylpyridinium) toxicity at a concentration of 1 mM, which was coincubated with compound 9 for 24 h. MPP^+ is a well-established neurotoxin that selectively damages neurons, making it a commonly used agent to model aspects of neurodegenerative conditions in vitro. It induces oxidative stress and mitochondrial dysfunction, leading to cell death. Cell viability was detected by a standard MTS assay.
Neuroprotection studies were performed according to the procedure described previously.[27] In brief, SH-SY5Y CRL-2266 (American Type Culture Collection, Manassas, VG) were seeded in microplate at a concentration of 2.5 × 10^4 cells/well in 100 μL of culture medium and cultured for 24 h at 37 °C and 5% CO2. […] Next, MPP^+ was added at a final concentration of 1 mM and the cells were placed in the incubator. After 24 h of the compound coincubation with MPP^+, the CellTiter 96 AQueous Nonradioactive Cell Proliferation Assay (MTS) was performed. The test was purchased from Promega (Madison, WI). The absorbance was measured using a microplate reader EnSpire (PerkinElmer, Waltham, MA) at 490 nm. All results were shown as mean ± SD. The statistical significances were calculated by GraphPad Prism 6.0 software.

The next data set addresses T1, hBGT1 (Homo sapiens, UniProt P48065).
T1 construct: expressed in transfected cells
T1 sequence (P48065 1-614): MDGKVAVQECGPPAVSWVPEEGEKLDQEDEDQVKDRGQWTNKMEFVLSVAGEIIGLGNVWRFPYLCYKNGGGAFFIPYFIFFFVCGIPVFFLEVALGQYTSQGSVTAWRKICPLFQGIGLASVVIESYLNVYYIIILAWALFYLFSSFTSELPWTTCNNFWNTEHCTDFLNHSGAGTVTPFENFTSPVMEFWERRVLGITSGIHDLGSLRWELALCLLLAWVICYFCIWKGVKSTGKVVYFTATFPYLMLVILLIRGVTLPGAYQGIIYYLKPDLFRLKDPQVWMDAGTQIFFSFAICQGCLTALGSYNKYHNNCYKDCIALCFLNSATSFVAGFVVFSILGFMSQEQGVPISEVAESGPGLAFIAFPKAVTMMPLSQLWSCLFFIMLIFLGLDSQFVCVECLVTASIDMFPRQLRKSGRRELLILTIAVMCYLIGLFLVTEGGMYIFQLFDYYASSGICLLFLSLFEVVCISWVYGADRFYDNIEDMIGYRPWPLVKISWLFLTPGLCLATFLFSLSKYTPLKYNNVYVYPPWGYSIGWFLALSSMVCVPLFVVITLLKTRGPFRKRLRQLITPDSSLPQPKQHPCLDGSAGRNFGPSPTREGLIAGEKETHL
In words: [3H]GABA uptake assay, CHO cells stably expressing hBGT1. Particulars: read-out: inhibition of [3H]GABA uptake; screening concentration 100 μM; CHO cells. Format: cell-based. On the procedure: All selected compounds were tested for their ability to inhibit human BGT1 (hBGT1) function.
The CHO cells were placed in 96-well plates (approximately 50,000 cells/well) for about 24 h before the experiment. […] After incubation, cells were washed 3 times with 100 μL/well ice-cold assay buffer, 150 μL/well MicroScint20 (PerkinElmer) was subsequently added before the plate was shaken for at least 1 h. The radioactivity of each well of the plate was measured on a TopCount NXT scintillation counter. […] Data presented are the pooled data of at least three independent experiments with three technical replicates if not stated otherwise in figure legends. Concentration–response curves were fitted by nonlinear regression to the sigmoidal concentration–response model with GraphPad Prism v 9.0.

For data set [3], the system named is normal human astrocytes (NHA). Nature of the data set: Confocal imaging of astrocyte morphology after incubation in PBS (non-GABA conditions). The following applies: 500 μM GABA with 500 μM compound 9 in PBS; 72 h. Type of data set: cell-based. On the procedure: To this end, we tested whether blocking the transport of GABA under experimental non-GABA extracellular conditions may impair the homeostasis of these cells. […] Afterward, the cells were stained to visualize actin filaments using confocal microscopy. […] Nevertheless, further kinetic studies are necessary to verify this hypothesis.
NHA was grown on a coverslip in a 35 mm culture dish. After treatment, the cells were fixed (4% paraformaldehyde) and permeabilized (0.1% Triton X-100). Then, the samples were stained with Phalloidin-Atto 565 (Sigma-Aldrich, Inc.) according to the manufacturer’s protocol. Laser confocal microscope Nikon Eclipse Ti-E A1R-Si and Nikon NIS Elements AR software were used for cell imaging.

A further data set addresses GABAA receptor. Also noted: method as in PMID 34595152. Particulars: agonist; cited from earlier work.
The next data set deals with T2, hBGT1 E52A (Homo sapiens, UniProt P48065, E52A).
T2 construct: host or cells: tsA201 cells (transformed HEK293), transient expression
T2 sequence (P48065 1-614 E52A): T1 sequence (P48065 1-614) with E52A
Also noted: method as in PMID 34595152. The following applies: ref 12; cited from earlier work.

The next data set relates to BGT1. The following applies: cited from earlier work.
The subject of a further data set is mouse models. Particulars: cited from earlier work.

Positions count from the first letter of the chain named. pEC50, pIC50: −log10 of the molar value. Like-named read-outs stand apart in the source and are kept apart here.

Turning to `COc1cccc2c1C(=O)c1c(O)c3c(c(O)c1C2=O)C[C@@](O)(C(=O)CO)C[C@@H]3O[C@H]1C[C@H](N)[C@H](O)[C@H](C)O1` [doxorubicin, reference compound], in data set [1], the “impact on SH-SY5Y viability” value was “significantly decreased SH-SY5Y viability”.

As to `C[n+]1ccc(-c2ccccc2)cc1` [MPP^+, 1-methyl-4-phenylpyridinium, reference compound], the “viability of SH-SY5Y cells” value in data set [2] (neurotoxin 1 mM) is reported as “significantly reduced the viability”.

By inhibition is commonly meant the change of the read-out against control, counted positive when it falls. As for `NCc1cc(C(=O)O)[nH]n1` [Compound 11], on hBGT1, the inhibition at 100 µM came to 26%.

For the compound `NCCCC(=O)O` [GABA, γ-Aminobutyric acid, reference compound], in data set [3], the “effect on compound 9-induced morphological changes of astrocytes” value is reported as “prevented these changes”. For the same compound, the “cell viability compared to MPP+ alone” value in data set [2] (GABA 10 μM, positive control, 1 mM MPP+) was “significantly increased cell viability”.

In the case of `O=C(O)CC1CNCCO1` (stereo not drawn) [Compound 3], the inhibition at 100 µM at hBGT1 was 40%.

The term pEC50 denotes the EC50 on a negative log10 scale, so that one unit is a factor of ten. A word on the pIC50: it is the IC50 on a negative log10 scale, so that one unit is a factor of ten. Turning to `N[C@@]12CC[C@H](C(=O)O)[C@@H]1C2` [bicyclo-GABA, (1S,2S,5R)-5-aminobicyclo[3.1.0]hexane-2-carboxylic acid], on GABAA receptor, the pEC50 is 5.29. Also, on hBGT1 E52A, the “change in activity on substitution of Glu52 with alanine” value is recorded as “drastic increase in activity”. Moreover, the results for the pIC50 with BGT1 (ref 11) and with BGT1 (ref 12) were 6.23 and 5.82, respectively.

As for `Cc1ccsc1C(=CCCN(C)C1CCCc2o[nH]c(=O)c21)c1sccc1C` (stereo not drawn) [EF1502], the anticonvulsant properties entry with mouse models (ref 13) is listed as “anticonvulsant properties”. The “anticonvulsant effect when coadministered with tiagabine” value in the data set on mouse models (ref 14) is recorded as “synergistic effect”.
